Where a name gives a salt, the structure may show the parent alone. Positions of bridges follow the written chain, without caps; N, C: chain ends. Non-standard residues stand in square brackets, D forms with d. Residues, ends and D or L forms follow the SMILES beside them. *: point of attachment. Me3N+(CH2)2O(CH2)2O(CH2)2CO = C[N+](C)(C)CCOCCOCCC(=O)*; Trp(7-Me) = Cc1cccc2c(C[C@H](N)C(=O)O)c[nH]c12; dLys(Me3) = C[N+](C)(C)CCCC[C@@H](N)C(=O)O; 2Nal = N[C@@H](Cc1ccc2ccccc2c1)C(=O)O; AEF = NCCOc1ccc(C[C@H](N)C(=O)O)cc1; dNMeY = CN[C@H](Cc1ccc(O)cc1)C(=O)O; X45 = COCC[N+](C)(C)CCc1cn(CC*)nn1; 3Pal = N[C@@H](Cc1cccnc1)C(=O)O; Ethyl(2-guanidino) = N=C(N)NCC*; Lys(Me) = CNCCCC[C@H](N)C(=O)O; Pen = CC(C)(S)[C@H](N)C(=O)O; X4 = COCCOCCCN(CCCOCCOC)CC*; Thp = NC1(C(=O)O)CCOCC1; X3 = C[N+](C)(C)CCCCC*; Me2NCH2CH2 = CN(C)CC*; Tfa = O=C(C(F)(F)F)*; Sar = CNCC(=O)O
Tests used:
IL-23R = target: T1, IL-23R (Homo sapiens, UniProt Q5VWK5); test: IL23R Reporter Assay; type: cell-based; conditions: HEK293 cells containing IL-23R, IL-12RP1 and STAT-inducible firefly luciferase reporter; 10 ng/mL IL-23 (EC90); 5 h at 37° C.; read-out: IL23R Reporter Assay
T1 construct: host or cells: HEK293
T1 sequence (Q5VWK5 24-629): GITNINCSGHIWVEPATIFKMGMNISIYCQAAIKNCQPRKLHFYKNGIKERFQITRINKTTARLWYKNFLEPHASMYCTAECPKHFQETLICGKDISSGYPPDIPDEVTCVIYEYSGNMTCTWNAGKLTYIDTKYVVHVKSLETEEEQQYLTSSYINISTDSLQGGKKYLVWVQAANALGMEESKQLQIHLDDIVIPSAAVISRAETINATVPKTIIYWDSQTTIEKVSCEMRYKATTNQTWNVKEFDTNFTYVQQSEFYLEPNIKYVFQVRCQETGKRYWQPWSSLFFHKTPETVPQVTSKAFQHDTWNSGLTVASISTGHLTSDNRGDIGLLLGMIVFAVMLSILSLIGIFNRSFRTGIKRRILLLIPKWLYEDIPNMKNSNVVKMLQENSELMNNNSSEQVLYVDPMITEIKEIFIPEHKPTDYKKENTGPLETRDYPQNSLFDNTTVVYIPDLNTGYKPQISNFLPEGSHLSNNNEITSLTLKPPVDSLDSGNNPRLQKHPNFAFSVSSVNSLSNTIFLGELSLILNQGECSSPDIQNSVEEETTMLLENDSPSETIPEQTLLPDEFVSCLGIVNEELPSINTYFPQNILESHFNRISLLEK

[1] = Exposed Polar Surface Area (EPSA); type: physicochemical; conditions: SFC on Chirex 3014 column; sample 1 mM DMSO stock; read-out: EPSA
Summary of the method: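 Chirex 3014 column, 35 °C, 4 mL/min; CO2/MeOH + 20 mM NH4 formate, 5→60% modifier at 20%/min. UV/MS detection. EPSA (Å^2) from retention time vs 8-standard calibration line; duplicates; 1 mM DMSO stock injected undiluted.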

Molecule `CC(=O)N[C@@H]1C(=O)N[C@@H](CC(=O)N(C)C)C(=O)N[C@@H]([C@@H](C)O)C(=O)N[C@@H](Cc2c[nH]c3c(C)cccc23)C(=O)N[C@@H](CCC(=O)N(C)C)C(=O)N[C@H](C(=O)N[C@@H](Cc2ccc(OCCN(C)C)cc2)C(=O)N[C@@H](Cc2ccc3ccccc3c2)C(=O)NC2(C(=O)N[C@@H](CCC(=O)N(C)C)C(=O)N[C@@H](CC(N)=O)C(=O)N[C@@H](Cc3cccnc3)C(=O)N(C)CC(=O)N(C)C)CCOCC2)C(C)(C)SSC1(C)C` [compound 118, MeCO-Pen(3)-N(N(Me)2)-T-7MeW-Q(N(Me)2)-Pen(3)-AEF(N(Me)2)-2Nal-THP-Q(N(Me)2)-N-3Pya-Sar-CON(Me)2] (Ac-[Pen]D(NMe2)T[Trp(7-Me)]E(NMe2)[Pen]Y(Me2NCH2CH2)[2Nal][Thp]E(NMe2)N[3Pal][Sar]-NMe2; disulfide 1-6 (inferred)) has an IC50 (IL-23R) of 2.1 nM and an EPSA [1] of 138 A^2.

Work on `CC(=O)NCCCC[C@@H]1NC(=O)[C@H](Cc2c[nH]c3c(C)cccc23)NC(=O)[C@H]([C@@H](C)O)NC(=O)[C@H](CC(N)=O)NC(=O)[C@@H](NC(=O)[C@@H](CCCC[N+](C)(C)C)NC(=O)C(F)(F)F)C(C)(C)SSC(C)(C)[C@@H](C(=O)N[C@@H](Cc2ccc(OCCN)cc2)C(=O)N[C@@H](Cc2ccc3ccccc3c2)C(=O)NC2(C(=O)N[C@@H](CCCCNC(C)=O)C(=O)N[C@@H](CC(N)=O)C(=O)N[C@@H](Cc3cccnc3)C(=O)N(C)CC(N)=O)CCOCC2)NC1=O` [compound 80] (Tfa-[dLys(Me3)][Pen]NT[Trp(7-Me)]K(Ac)[Pen][AEF][2Nal][Thp]K(Ac)N[3Pal][Sar]-NH2; disulfide 2-7 (inferred)) yielded an IC50 (IL-23R) of 4.3 nM and an EPSA [1] of 157 A^2.

Molecule `COCCOCCCN(CCCOCCOC)CCOc1ccc(C[C@H](NC(=O)[C@H]2NC(=O)[C@H](CCCCN(C)C(C)=O)NC(=O)[C@H](Cc3c[nH]c4c(C)cccc34)NC(=O)[C@H]([C@@H](C)O)NC(=O)[C@H](CC(=O)N(C)C)NC(=O)[C@@H](NC(=O)CCOCCOCC[N+](C)(C)C)C(C)(C)SSC2(C)C)C(=O)N[C@@H](Cc2ccc3ccccc3c2)C(=O)NC2(C(=O)N[C@@H](CCCCN(C)C(C)=O)C(=O)N[C@@H](CC(N)=O)C(=O)N[C@@H](Cc3cccnc3)C(=O)N(C)CC(=O)N(C)C)CCOCC2)cc1` [compound 203, cPEG3aCO-Pen(3)-N(N(Me)2)-T-7MeW-K(NMeAc)-Pen(3)-AEF(BisMEP))-2Nal-THP-K(NMeAc)-N-3Pya-Sar-CON(Me)2] ({Me3N+(CH2)2O(CH2)2O(CH2)2CO}-[Pen]D(NMe2)T[Trp(7-Me)][Lys(Me)](Ac)[Pen]Y(X4)[2Nal][Thp][Lys(Me)](Ac)N[3Pal][Sar]-NMe2; disulfide 1-6) has an IC50 (IL-23R) of 1.6 nM and an EPSA [1] of 135 A^2.

With `CC(=O)NCCCC[C@@H]1NC(=O)[C@H](Cc2c[nH]c3c(C)cccc23)NC(=O)[C@H]([C@@H](C)O)NC(=O)[C@H](CC(N)=O)NC(=O)[C@@H](NC(=O)[C@@H](CCCNC(=N)N)NC(C)=O)C(C)(C)SSC(C)(C)[C@@H](C(=O)N[C@@H](Cc2ccc(OCCN)cc2)C(=O)N[C@@H](Cc2ccc3ccccc3c2)C(=O)NC2(C(=O)N[C@@H](CCC(=O)O)C(=O)N[C@@H](CC(N)=O)C(=O)N[C@@H](Cc3cccnc3)C(=O)N(C)[C@H](Cc3ccc(O)cc3)C(N)=O)CCOCC2)NC1=O` [compound 35, MeCO-r-Pen(3)-N-T-7MeW-K(Ac)-Pen(3)-AEF-2Nal-THp-E-N-3Pya-NMeDTyr-CONH2] (Ac-[dR][Pen]NT[Trp(7-Me)]K(Ac)[Pen][AEF][2Nal][Thp]EN[3Pal][dNMeY]-NH2; disulfide 2-7) the IC50 (IL-23R) was 3.4 nM and the EPSA [1] was 184 A^2.

In the case of `COCC[N+](C)(C)CCc1cn(CCOc2ccc(C[C@H](NC(=O)[C@H]3NC(=O)[C@H](CCCCN(C)C(C)=O)NC(=O)[C@H](Cc4c[nH]c5c(C)cccc45)NC(=O)[C@H]([C@@H](C)O)NC(=O)[C@H](CC(=O)N(C)C)NC(=O)[C@@H](NC(=O)CCOCCOCC[N+](C)(C)C)C(C)(C)SSC3(C)C)C(=O)N[C@@H](Cc3ccc4ccccc4c3)C(=O)NC3(C(=O)N[C@@H](CCCCN(C)C(C)=O)C(=O)N[C@@H](CC(N)=O)C(=O)N[C@@H](Cc4cccnc4)C(=O)N(C)CC(=O)N(C)C)CCOCC3)cc2)nn1` [compound 285, cPEG3aCO-Pen(3)-N(N(Me)2)-T-7MeW-K(NMeAc)-Pen(3)-Y(OTzlChmPEG)-2Nal-THP-K(NMeAc)-N-3Pya-Sar-CON(Me)2] ({Me3N+(CH2)2O(CH2)2O(CH2)2CO}-[Pen]D(NMe2)T[Trp(7-Me)][Lys(Me)](Ac)[Pen]Y(X45)[2Nal][Thp][Lys(Me)](Ac)N[3Pal][Sar]-NMe2; disulfide 1-6), the IC50 (IL-23R) is reported as 3.8 nM and the EPSA [1] is reported as 148 A^2.

Molecule `CC(=O)N(C)CCCC[C@@H]1NC(=O)[C@H](CC(C)C)NC(=O)[C@H]([C@@H](C)O)NC(=O)[C@H](CC(=O)N(C)C)NC(=O)[C@@H](NC(=O)CCOCCOCC[N+](C)(C)C)C(C)(C)SSC(C)(C)[C@@H](C(=O)N[C@@H](Cc2ccc(OCCCCC[N+](C)(C)C)cc2)C(=O)N[C@@H](Cc2ccc3ccccc3c2)C(=O)NC2(C(=O)N[C@@H](CCCCN(C)C(C)=O)C(=O)N[C@@H](CC(N)=O)C(=O)N[C@@H](Cc3cccnc3)C(=O)N(C)CC(=O)N(C)C)CCOCC2)NC1=O` [compound 511, cPEG3aCO-Pen(3)-N(N(Me)2)-T-L-K(NMeAc)-Pen(3)-TMAPF-2Nal-THP-K(NMeAc)-N-3Pya-Sar-CONMe2] ({Me3N+(CH2)2O(CH2)2O(CH2)2CO}-[Pen]D(NMe2)TL[Lys(Me)](Ac)[Pen]Y(X3)[2Nal][Thp][Lys(Me)](Ac)N[3Pal][Sar]-NMe2; disulfide 1-6) has an IC50 (IL-23R) of over 16600 nM and an EPSA [1] of 198 A^2.

`CC(=O)N[C@@H]1C(=O)N[C@@H](CC(=O)N(C)C)C(=O)N[C@@H]([C@@H](C)O)C(=O)N[C@@H](Cc2c[nH]c3c(C)cccc23)C(=O)N[C@@H](CCCCN(C)C(C)=O)C(=O)N[C@H](C(=O)N[C@@H](Cc2ccc(OCCN(C)C)cc2)C(=O)N[C@@H](Cc2ccc3ccccc3c2)C(=O)NC2(C(=O)N[C@@H](CCC(=O)O)C(=O)N[C@@H](CC(N)=O)C(=O)N[C@@H](Cc3cccnc3)C(=O)N(C)CC(=O)N(C)C)CCOCC2)C(C)(C)SSC1(C)C` [compound 106, MeCO-Pen(3)-N(N(Me)2)-T-7MeW-K(NMeAc)-Pen(3)-AEF(N(Me)2)-2Nal-THP-E-N-3Pya-Sar-CON(Me)2] (Ac-[Pen]D(NMe2)T[Trp(7-Me)][Lys(Me)](Ac)[Pen]Y(Me2NCH2CH2)[2Nal][Thp]EN[3Pal][Sar]-NMe2; disulfide 1-6 (inferred)) showed an IC50 (IL-23R) of 6.5 nM and an EPSA [1] of 153 A^2.

In the case of `CC(=O)NCCCC[C@@H]1NC(=O)[C@H](Cc2c[nH]c3c(C)cccc23)NC(=O)[C@H]([C@@H](C)O)NC(=O)[C@H](CC(N)=O)NC(=O)[C@@H](NC(=O)CCOCCOCC[N+](C)(C)C)C(C)(C)SSC(C)(C)[C@@H](C(=O)N[C@@H](Cc2ccc(OCCNC(=N)N)cc2)C(=O)N[C@@H](Cc2ccc3ccccc3c2)C(=O)NC2(C(=O)N[C@@H](CCCCNC(C)=O)C(=O)N[C@@H](CC(N)=O)C(=O)N[C@@H](Cc3cccnc3)C(=O)N(C)CC(N)=O)CCOCC2)NC1=O` [compound 471, cPEG3aCO-Pen(3)-N-T-7MeW-K(Ac)-Pen(3)-AEF(G)-2Nal-THP-K(Ac)-N-3Pya-Sar-CONH2] ({Me3N+(CH2)2O(CH2)2O(CH2)2CO}-[Pen]NT[Trp(7-Me)]K(Ac)[Pen]Y(Ethyl(2-guanidino))[2Nal][Thp]K(Ac)N[3Pal][Sar]-NH2; disulfide 1-6), the IC50 (IL-23R) is reported as 0.69 nM and the EPSA [1] is reported as 174 A^2.

From patent US20260022143A1, “Cyclic Peptide Inhibitors of IL-23” (JANSSEN PHARMACEUTICA NV, priority 2022, published 2026)
